Assay results as given in patent publication US20240173311A1, “METHODS AND COMPOSITIONS FOR MODULATING FGF ACTIVITY” (Recovery Therapeutics, Inc., priority 2021, published 2024).
Read-outs that look alike come from different tables or passages of the source. Values belong to the compound of their own block, whether it stands above or below them.

Assays:
[1] = target: T1, FGFR1 in recombinant human FGFR1/FGF2 complex (Homo sapiens, UniProt P11362); assay: Thermal shift assay (TSA), ΔTm of FGFR1 peak; format: binding; details: for ΔTm at 100 µM / ΔTm at 10 µM / ΔTm at 25 µM: read-out: ΔTm (° C.) −FGFR1
T1 construct: made in house; host or cells: Escherichia coli BL21 (DE3) Star
T1 sequence (P11362 142-365 limits assumed): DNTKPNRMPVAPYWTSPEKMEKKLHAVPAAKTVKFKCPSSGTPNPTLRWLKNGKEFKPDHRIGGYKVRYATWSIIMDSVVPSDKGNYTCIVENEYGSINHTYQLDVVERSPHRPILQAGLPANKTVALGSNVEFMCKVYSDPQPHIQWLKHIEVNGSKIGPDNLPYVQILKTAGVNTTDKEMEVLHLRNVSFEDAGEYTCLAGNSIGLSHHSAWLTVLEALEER
T1 sequence (P09038 156-288 partner limits assumed): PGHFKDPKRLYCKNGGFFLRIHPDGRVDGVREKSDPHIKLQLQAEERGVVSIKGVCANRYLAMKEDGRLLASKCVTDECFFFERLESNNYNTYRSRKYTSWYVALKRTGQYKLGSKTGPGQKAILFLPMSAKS
Procedure: (§1) TSA was utilized to biophysically characterize the recombinant human FGFR1/FGF2 complex in the presence or absence of selected compounds of formula (I), Compounds 1, 2a-2f, 20, 5, 60, and 8-13. Compound 1 was prepared according to the procedures described in Example 1, and the other compounds were obtained from commercial sources. The assay functions by protein denaturation over a temperature gradient. During protein unfolding, exposed hydrophobic regions bind a dye and fluoresce due to solvent relaxation effects. Changes in the melting temperature of the protein complex in the presence of each compound were monitored and compounds were screened/ranked using this method.
(§2) Thawed aliquots of purified FGF2 (1.0 mg/mL) and FGFR1 (1.6 mg/mL) proteins were mixed in a 1:1 molar ratio ([…]) on ice for 30 min at 4° C. and plated prior to the thermal shift assay (TSA).
(§3) Complex formation was verified by loading the complexed material on a size exclusion column (superdex 10 300GL S200) and observing the monodisperse peak corresponding to the FGF2/FGFR1 complex (˜ 40 kDa). Compounds described herein were screened in dose response format (0-100 μM) with the FGF2/FGFR1 complex in triplicates. FGF2/ FGFR1/compound complexes were mixed in a 1000:1 ratio with Sypro Orange dye (Sigma-Aldrich). The samples were processed using a Bio-Rad CFX C96 Touch quantitative polymerase chain reaction and run using the FRET assay settings with a heating ramp of 0.3° C./s cycling from 4 to 100° C. Data analysis was performed using the Bio-Rad CFX Manager Software (version 3.1, Bio-Rad) and changes in the melting temperature (Tm) of the complex in the presence of each compound were monitored. The results are shown in Table 9 below and also in FIG. 1 (for Compound 10).

[2] = target: T2, FGF2 in recombinant human FGFR1/FGF2 complex (Homo sapiens, UniProt P09038); assay: Thermal shift assay (TSA), ΔTm of FGF2 peak; format: binding; details: for ΔTm at 100 µM / ΔTm at 10 µM / ΔTm at 25 µM: read-out: ΔTm (° C.) −FGF2
T2 construct: made in house; host or cells: Escherichia coli BL21 (DE3) Star
T2 sequence (P09038 156-288 limits assumed): as the sequence (P09038 156-288 partner limits assumed) above
T2 sequence (P11362 142-365 partner limits assumed): as the sequence (P11362 142-365 limits assumed) above
Procedure: as §1, §2, §3

Compound: O=Cc1ccccc1 [Compound 1a]
- ΔTm at 100 µM [1]: 0.5 °C
- ΔTm at 100 µM [2]: 0 °C

Compound: O=Cc1ccc(F)cc1 [Compound 1b]
- ΔTm at 100 µM ([1]; 100 μM compound): 0 °C
- ΔTm at 100 µM ([2]; 100 μM compound): 1 °C

Compound: O=Cc1ccc(Cl)cc1 [Compound 1c]
- ΔTm at 10 µM [1]: -2.2 °C
- ΔTm at 10 µM [2]: 2 °C

Compound: O=Cc1ccc(Br)cc1 [Compound 1d]
- ΔTm at 25 µM [1]: -2.1 °C
- ΔTm at 25 µM [2]: 1.6 °C

Compound: O=Cc1ccccc1F [Compound 1e]
- ΔTm at 100 µM ([1]; 100 μM compound): 0 °C
- ΔTm at 100 µM ([2]; 100 μM compound): 0.3 °C

Compound: O=Cc1cccc(F)c1 [Compound 1f, 3-fluorobenzaldehyde]
- ΔTm at 50 µM ([1]; 50 μM compound): 4 °C
- ΔTm at 50 µM ([2]; 50 μM compound): -0.4 °C

Compound: CCN(CC)c1ccc(C=O)cc1 [Compound 1o, 4-diethylaminobenzaldehyde]
- ΔTm at 25 µM [1]: 5 °C
- ΔTm at 25 µM [2]: -2 °C

Compound: CCN(CC)c1ccc(/C=N/c2ccccc2)cc1 [Compound 4on]
- ΔTm at 25 µM ([1]; 25 μM compound): 1.5 °C
- ΔTm at 25 µM ([2]; 25 μM compound): -0.5 °C

Compound: CCN(CC)c1ccc(/C=N/Cc2ccccc2)cc1 [Compound 4ow, (E)-4-((benzylimino)methyl)-N,N-diethylaniline]
- ΔTm at 25 µM ([1]; 25 μM compound): 4 °C
- ΔTm at 25 µM ([2]; 25 μM compound): -2 °C

Compound: CCN(CC)c1ccc(/C=N/c2ccc(C(F)(F)F)cc2)cc1 [Compound 4oy, (E)-N, N-diethyl-4-(((4-(trifluoromethyl)phenyl)imino)methyl)aniline]
- melting point: 129.3 to 129.6 °C
- ΔTm at 50 µM ([1]; 50 μM compound): 7.8 °C
- ΔTm at 50 µM ([2]; 50 μM compound): -4.5 °C

Compound: CCN(CC)c1ccc(/C=N/O)cc1 [Compound 5o]
- ΔTm at 2 µM ([1]; 2 μM compound): 3.5 °C
- ΔTm at 2 µM ([2]; 2 μM compound): -1 °C

Compound: CCN(CC)c1ccc(C(O)c2cccc(OC(F)(F)F)c2)cc1 (centres unmarked) [Compound 8om, (4-(diethylamino)phenyl)(3-(trifluoromethoxy)phenyl)methano]
- ΔTm (° C.) −FGFR1 ([1]; 10 μM compound): +0.3 °C
- ΔTm (° C.) −FGF2 ([2]; 10 μM compound): 0 °C

Compound: O=C(c1ccccc1)c1cccc(F)c1 [Compound 9af]
- ΔTm at 10 µM ([1]; 10 μM compound): 9.8 °C
- ΔTm at 10 µM ([2]; 10 μM compound): -6 °C

Compound: CCN(CC)c1ccc(C(=O)c2ccccc2)cc1 [Compound 9oa]
- ΔTm at 10 µM ([1]; 10 μM compound): 6 °C
- ΔTm at 10 µM ([2]; 10 μM compound): -0.3 °C

Compound: CCN(CC)c1ccc(C(C)=O)cc1 [Compound 16]
- ΔTm at 25 µM [1]: 0.2 °C
- ΔTm at 25 µM [2]: 0 °C

Compound: CCN(CC)c1ccc(C(=O)O)cc1 [Compound 17]
- ΔTm at 100 µM ([1]; 100 μM compound): 2.5 °C
- ΔTm at 100 µM ([2]; 100 μM compound): 0 °C

Compound: (4-(diethylamino)phenyl)(3-(trifluoromethoxy)phenyl)methanone [Compound 9om]
- ΔTm (° C.) −FGFR1 ([1]; 100 μM compound): +1.2 °C
- ΔTm (° C.) −FGF2 ([2]; 100 μM compound): +1.8 °C

Compound: (4-(diethylamino)phenyl)(3-(trifluoromethyl)phenyl)methanone [Compound 9ob]
- ΔTm (° C.) −FGFR1 ([1]; 50 μM compound): +1.2 °C
- ΔTm (° C.) −FGF2 ([2]; 50 μM compound): +1.5 °C

Compound: (4-(diethylamino)phenyl)(3-methoxyphenyl)methanone [Compound 9oc]
- ΔTm (° C.) −FGFR1 ([1]; 2 μM compound): +9.5 °C
- ΔTm (° C.) −FGF2 ([2]; 2 μM compound): −5.6 °C

Results, then the compound that gave them:

- ΔTm at 2 µM ([1]; 2 μM compound): 11 °C
- ΔTm at 2 µM ([2]; 2 μM compound): -5.2 °C
Compound: CCN(CC)c1ccc(/C=N/N=C/c2ccc(N(CC)CC)cc2)cc1 [Compound 10o, 4,4′-((1E,1′E)-hydrazine-1,2-diylidenebis(methaneylylidene))bis(N,N-diethylaniline)]

- ΔTm at 50 µM ([1]; 50 μM compound): 2 °C
- ΔTm at 50 µM ([2]; 50 μM compound): -4.2 °C
Compound: CCN(CC)c1ccc(C2N[C@@H](C(=O)O)C(C)(C)S2)cc1 (stereo partly drawn) [Compound 11o, (4S)-2-(4-(diethylamino)phenyl)-5,5-dimethylthiazolidine-4-carboxylic acid]

- ΔTm at 50 µM ([1]; 50 μM compound): 0 °C
- ΔTm at 50 µM ([2]; 50 μM compound): -2.1 °C
Compound: CCN(CC)c1ccc(/C=N/NC(=O)CN(C)C)cc1 [Compound 13oa, (E)-N′-(4-(diethylamino)benzylidene)-2-(dimethylamino)acetohydrazide]

- ΔTm at 25 µM ([1]; 25 μM compound): 1.5 °C
- ΔTm at 25 µM ([2]; 25 μM compound): -2.7 °C
Compound: CCN(CC)c1ccc(/C=N/NC(=O)C2CCOCC2)cc1 [Compound 13ob, (E)-N′-(4-(diethylamino)benzylidene)tetrahydro-2H-pyran-4-carbohydrazide]

- ΔTm at 10 µM ([1]; 10 μM compound): -1.5 °C
- ΔTm at 10 µM ([2]; 10 μM compound): -0.5 °C
Compound: CCN(CC)c1ccc(/C=N/NC(=O)c2ccc(O)cc2)cc1 [Compound 13oe]

- ΔTm at 10 µM ([1]; 10 μM compound): 0.6 °C
- ΔTm at 10 µM ([2]; 10 μM compound): 0 °C
Compound: CCN(CC)c1ccc(/C=N/NC(=O)C2CCN(CCO)CC2)cc1 [Compound 13oh, (E)-N′-(4-(diethylamino)benzylidene)-1-(2-hydroxyethyl)piperidine-4-carbohydrazide]

- ΔTm at 100 µM ([1]; 100 μM compound): 2 °C
- ΔTm at 100 µM ([2]; 100 μM compound): -1.5 °C
Compound: CCN(CC)c1ccc(/C=N/N2CCN(C(c3ccccc3)c3ccccc3)CC2)cc1 [Compound 15oa, (E)-4-(((4-benzhydrylpiperazin-1-yl)imino)methyl)-N,N-diethylaniline]

- ΔTm at 25 µM ([1]; 25 μM compound): 0 °C
- ΔTm at 25 µM ([2]; 25 μM compound): -1 °C
Compound: CCN(CC)c1ccc(/C=N/N(c2ccccc2)c2ccccc2)cc1 [Compound 15ob]

- ΔTm at 2 µM ([1]; 2 μM compound): 4.3 °C
- ΔTm at 2 µM ([2]; 2 μM compound): -2.4 °C
Compound: CCN(CC)c1ccc(/C=N/Nc2ccccc2)cc1 [Compound 15oc]

- ΔTm at 10 µM ([1]; 10 μM compound): 0 °C
- ΔTm at 10 µM ([2]; 10 μM compound): -1 °C
Compound: CCN(CC)c1ccc(/C=N/Nc2ccc(C#N)cc2)cc1 [Compound 15od, (E)-4-(2-(4-(diethylamino)benzylidene)hydrazineyl)benzonitrile]
